Test results from PMC10870825, “Design, synthesis, and inhibitory activity of hydroquinone ester derivatives against mushroom tyrosinase” (RSC Advances, 2024).
Entries after “also recorded” stand apart in the source; their conditions may differ. Read-outs that look alike come from different tables or passages of the source.

What was measured:
[1] = biological target: T1, mushroom tyrosinase (mTyr) (Agaricus bisporus, UniProt C7FF04); assay: Inhibitory activity assay on mTyr with L-tyrosine as substrate; assay type: biochemical; conditions: for Concentration at maximum inhibition rate: second figure of the cell rate/concentration
Procedure: The synthesized hydroquinone ester derivatives were dissolved in 3% dimethyl sulfoxide (DMSO) solution and then diluted with phosphate-buffered solution (PBS, pH 6.86, 100 mM) to obtain different concentrations. […] The plate was incubated at 37 °C for 30 minutes, after which 20 μL of L-tyrosine solution (1 mM) was added and mixed. The absorbance at a wavelength of 475 nm was measured using a SpectraMax 190 microplate reader (MolecularDevices, USA) continuously for 30 minutes. PBS was used as a blank control, and kojic acid was used as a positive control.

[2] = biological target: T1, mushroom tyrosinase (mTyr); conditions: read-out: IC50 for inhibiting mTyr activity; literature value; ref [15]; cited from earlier work
[3] = biological target: T1, mushroom tyrosinase (mTyr); assay: Inhibition reversibility and type assay (Lineweaver–Burk kinetics) on mTyr; assay type: biochemical; conditions: for Inhibition type: Lineweaver–Burk plots, 300 U/mL mTyr, varying L-tyrosine
Procedure: The methodology for evaluating the reversibility of inhibition and the inhibition type of the compounds on mTyr closely parallels the procedure outlined in the inhibitory activity assay of compounds on mTyr.
For the evaluation of inhibition reversibility, a constant concentration of 1 mM L-tyrosine was employed. […] The absorption was measured to determine the initial enzymatic reaction rate corresponding to each enzyme concentration. Specifically, the initial enzymatic reaction rate was calculated by subtracting the initial absorbance from the absorbance recorded at a specific time and then dividing the result by the corresponding time interval.[32] Subsequently, the collected data were plotted on a scatter plot, with the initial enzymatic reaction rate represented on the Y-axis and the enzyme concentration on the X-axis. In cases of reversibility, this will result in fitting a set of straight lines passing through the origin. Conversely, when reversibility was absent, a set of parallel lines emerged as the fit.[33]
In order to investigate the inhibition type, a final concentration of 300 U per mL mTyr was employed, accompanied by varying concentrations of L-tyrosine. The enzymatic reaction rate was evaluated for different concentrations of compounds 3a–3e. Subsequently, the ΔOD475 values were plotted against the L-tyrosine concentration using the Lineweaver–Burk equation, allowing for the creation of double reciprocal plots.

[4] = test system: human immortalized keratinocyte (HaCaT) non-tumor cells; assay: CCK-8 cell proliferation and cytotoxicity assay, HaCaT cells; assay type: cell-based
Procedure: (§1) Cell proliferation and cytotoxicity assays were performed using the CCK-8 on Human Epidermal Melanoma A375 and HaCaT cells. Initially, the cells were seeded in 96-well plates at a density of 4 × 10^4 cells per well and incubated for 24 hours at 37 °C with 5% CO2 in a humidified incubator. Each treatment was conducted in six duplicate wells. Various concentrations of the tested compounds were added to the wells, and the cells were further incubated for 72 hours. After the incubation period, CCK-8 solution was added to each well and incubated for an additional 2 hours. The absorbance of each well at 450 nm was measured using an absorbance microplate reader (BioTek ELx800, USA). Negative controls with cells treated with distilled water and positive controls with cells were treated with 10 μg mL^−1 taxol was included in the assay. The percentage of cell growth inhibition was calculated using eqn (2).2 [drawing 1] where G1 represents the absorbance of a mixture containing cells, medium, and CCK8, G2 represents the absorbance of absorbance of a mixture containing cells, medium, CCK8, and the test compound; G3 represents a mixture containing medium and CCK8.
(§2) Cell growth and morphology were observed using an inverted microscope (Olympus IX51, Japan). The experiments were conducted in triplicate to ensure accuracy and consistency of results.

[5] = test system: human epidermal melanoma A375 cells; assay: CCK-8 cell proliferation and cytotoxicity assay, A375 cells; assay type: cell-based
Procedure: as §1, §2

[6] = substrate L-tyrosine, read-out: IC50 for inhibiting mTyr activity

T1 sequence (C7FF04 1-392): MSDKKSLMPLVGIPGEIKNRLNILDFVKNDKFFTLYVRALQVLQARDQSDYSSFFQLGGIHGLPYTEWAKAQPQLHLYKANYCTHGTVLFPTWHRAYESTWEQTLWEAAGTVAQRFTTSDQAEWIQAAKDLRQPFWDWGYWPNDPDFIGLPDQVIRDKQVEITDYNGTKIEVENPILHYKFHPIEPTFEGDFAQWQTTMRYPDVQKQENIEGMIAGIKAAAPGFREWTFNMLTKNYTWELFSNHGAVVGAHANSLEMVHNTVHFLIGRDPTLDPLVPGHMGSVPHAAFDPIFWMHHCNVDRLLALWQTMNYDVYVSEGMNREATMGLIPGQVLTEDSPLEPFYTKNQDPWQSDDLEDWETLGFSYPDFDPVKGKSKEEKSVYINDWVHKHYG

Row | Structure (SMILES) | Concentration at maximum inhibition rate [1] [µM] | IC50 [1, 6] [µM] | melting point [°C] | Inhibition type [3] | maximum reaction rate (Vm) of mTyr ([3]; compound concentration 5 μM) | maximum reaction rate (Vm) of mTyr ([3]; compound concentration 10 μM) | maximum reaction rate (Vm) of mTyr ([3]; compound concentration 20 μM) | also measured
1 | O=C(O)C=Cc1ccc(O)cc1 [4-Hydroxycinnamic acid, 4-hydroxycinnamic acid, reference compound] | 50 | – | – | – | – | – | – | IC50 [1]: 16.4 ± 5.42 µM
2 | O=C(O)/C=C/c1ccccc1 [Cinnamic acid, cinnamic acid] | – | – | – | – | – | – | – | IC50 [2]: 201 ± 5.3 µM
3 | O=C(/C=C/c1ccc(O)cc1)Oc1ccc(O)cc1 [Compound 3a, 4-hydroxyphenyl (2E)-3-(4-hydroxyphenyl) prop-2-enoate] | 10 | 1.75 ± 0.02 | 217 to 220 | Noncompetitive; also recorded: non-competitive inhibition; also recorded: non-competitive inhibitors | 0.4272 ×103, min-1 | 0.2843 ×103, min-1 | 0.1836 ×103, min-1 | –
4 | O=C(C=Cc1ccccc1)Oc1ccc(O)cc1 [Compound 3b, 4-hydroxyphenyl cinnamate] | 2.5 | 0.18 ± 0.06 | 171 to 173 | Mix-noncompetitive; also recorded: mixed-type inhibition | – | – | – | inhibition at 50 µM ([4]; Homo sapiens, HaCaT, 50 μM, read-out: inhibition rate on HaCaT cells): 9.09%; IC50 ([4]; Homo sapiens, HaCaT, 72 hours, CCK-8, read-out: IC50 against HaCaT cells): 169 µM; inhibition rate on HaCaT cells ([4]; concentration range 3.125–25 μM): below 5%; maximum reaction rate (Vm) of mTyr ([3]; compound concentration 1 μM): 0.7572 ×103, min-1; maximum reaction rate (Vm) of mTyr ([3]; compound concentration 2 μM): 0.3461 ×103, min-1; maximum reaction rate (Vm) of mTyr ([3]; compound concentration 4 μM): 0.2145 ×103, min-1; Ki ([3]; read-out: free enzyme inhibition constant (KI)): 1.88 µM; mTyr–substrate complex inhibition constant (KIS) ([3]; secondary plots, mixed-type inhibition): 0.3395 µM; inhibition at 50 µM ([5]; A-375, 50 μM, read-out: inhibition rate on A375 cells): 60.9%; IC50 ([5]; A-375, 72 hours, CCK-8, read-out: IC50 against A375 cells): 40.8 µM
5 | O=C(CCc1ccccc1)Oc1ccc(O)cc1 [Compound 3c, 4-hydroxyphenyl 3-phenylpropanoate] | 50 | 7.46 ± 0.9 | 149 to 151 | Noncompetitive; also recorded: non-competitive inhibition; also recorded: non-competitive inhibitors | 0.6327 ×103, min-1 | 0.3424 ×103, min-1 | 0.2581 ×103, min-1 | –
6 | O=C(Oc1ccc(O)cc1)c1ccccc1 [Compound 3d, 4-hydroxyphenyl benzoate] | 75 | 20.5 ± 1.79 | 150 to 152 | competitive inhibition; also recorded: competitive inhibitors | 0.9216 ×103, min-1 | 0.9208 ×103, min-1 | 0.9209 ×103, min-1 | –
7 | O=C(Oc1ccc(O)cc1)c1ccc(F)cc1 [Compound 3e, 4-hydroxyphenyl 4-fluorobenzoate] | 100 | 24.7 ± 3.04 | 142 to 144 | competitive inhibition; also recorded: competitive inhibitors | 1.474 ×103, min-1 | 1.470 ×103, min-1 | 1.468 ×103, min-1 | –
8 | O=C(Oc1ccc(OC(=O)c2ccc(F)cc2)cc1)c1ccc(F)cc1 [Compound 3f, 1,4-phenylene bis(4-fluorobenzoate)] | 100 | 54.2 ± 8.65 | 196 to 198 | – | – | – | – | –
9 | O=C(CCc1ccccc1)Oc1ccc(OC(=O)CCc2ccccc2)cc1 [Compound 3g, 1,4-phenylene bis(3-phenylpropanoate)] | – | – | 128 to 130 | – | – | – | – | –
10 | Oc1ccc(O)cc1 [Hydroquinone, hydroquinone] | 75 | 22.78 ± 0.16 | – | – | – | – | – | –
